# Results taken from US20250109156A1, “INDOLE-CONTAINING MACROCYCLIC COMPOUNDS AND USES THEREOF” (JIANGSU AOSAIKANG PHARMACEUTICAL CO., LTD., priority 2022, published 2025).
# Key:
# HCC70 cells = assay: In vitro HCC70 cell activity assay (CellTiter-Glo proliferation); format: cell-based; conditions: Homo sapiens, 96 h, 4 days incubation
# Protocol: Experimental Example 4: In Vitro HCC70 Cell Activity Assay
# 1640 culture medium, fetal bovine serum, penicillin/streptomycin antibiotics were purchased from WISENT. CellTiter-Glo (cell viability chemiluminescence detection reagent) reagent was purchased from Promega. HCC70 cell line was purchased from Nanjing Cobioer Biosciences Co. Ltd. Nivo multimode microplate reader (PerkinElmer).
# The HCC70 cells were seeded in a white 96-well plate, with 80 μL of cell suspension per well, containing 6000 HCC70 cells each. The cell plate was incubated overnight in a CO2 incubator. The compounds to be tested were 3-fold diluted with a multi-channel pipette to the 8th concentration, i.e., diluted from 2 mM to […], and the experiment was set up in duplicate wells. 78 μL of culture medium was added to an intermediate plate, and then 2 μL of gradient diluted compound per well was transferred to the intermediate plate according to the corresponding position. After mixing well, the compound was transferred to the cell plate at 20 μL per well. The concentration of the compound transferred to the cell plate ranged from 10 μM to 1.52 nM. The cell plate was incubated in a CO2 incubator for 4 days. Another cell plate was prepared to measure the signal on the day of drug addition as the maximum value (denoted as Max in the equation below) for data analysis. 25 μL of cell viability chemiluminescence detection reagent was added to each well of this cell plate, and incubated at room temperature for 10 minutes to stabilize the luminescent signal. A multimode microplate reader was used for reading.
# 25 μL of cell viability chemiluminescence detection reagent was added to each well of this cell plate, and incubated at room temperature for 10 minutes to stabilize the luminescent signal. A multimode microplate reader was used for reading.
# Using the equation (Sample−Min)/(Max−Min)*100% to convert the raw data into inhibition rate, the IC50 value may be obtained by curve fitting with four parameters (obtained by “log (inhibitor) vs. response—Variable slope” mode in GraphPad Prism). Table 1 provides the inhibitory activity of the compounds of the present disclosure on the proliferation of HCC70 cells.
# CDK9-CyclinT1 = CDK9-CyclinT1 (Homo sapiens (Human), UniProt P50750); assay: In vitro CDK9-CyclinT1 enzyme activity assay (TR-FRET); format: biochemical; conditions: Ulight-4E-BP1 peptide, 25° C. 120 minutes
# Protocol: Experimental Example 3: In Vitro CDK9/[…] Enzyme Activity Assay
# CDK9-CyclinT1 was purchased from CARNA. Ulight-4E-BP1 peptide, Eu-anti-phospho-tyrosine antibody, and 1× detection buffer were purchased from PerkinElmer. High-purity ATP was purchased from Promega. EDTA was purchased from Sigma. Nivo multimode microplate reader (PerkinElmer).
# (§1) Preparation of kinase buffer: the kinase buffer containing 50 mM HEPES, 1 mM EDTA, 10 mM MgCl2, 0.01% Brij-35, pH 7.4.
# (§2) 2.38 g of HEPES, 58 mg of EDTA, 406 mg of MgCl2, and 20 mg of Brij-35 were added to 200 mL of buffer, and the pH was adjusted to 7.4.
# (§3) 100 μL of 1 M EDTA stock solution was mixed with 0.625 μL of 1× detection buffer and 1725 μL of distilled water to prepare the stop solution.
# (§4) Enzyme, Ulight-4E-BP1 peptide, ATP, and inhibitors were diluted with the kinase buffer.
# (§5) The Eu-anti-phospho-tyrosine antibody was diluted to a concentration of 8 nM/L using detection buffer.
# The compounds to be tested were 4-fold diluted with a multi-channel pipette to the 8th concentration, i.e., from 400 μM to 24.4 nM, with a final DMSO concentration of 4%. The experiment was set up in duplicate wells. 2.5 μL of each concentration gradient of the inhibitor was added to the microplate, followed by 5 μL of CDK9-CyclinT1 enzyme (2 ng), and 2.5 μL of a mixture of substrate and ATP (8 mM ATP, 50 nM Ulight-4E-BP1 peptide). At this point, the final concentration gradient of the compound was 100 μM diluted to 6.1 nM. The reaction system was reacted at 25° C. for 120 minutes. After the reaction, 5 μL of stop solution was added to each well, and the reaction was continued at 25° C. for 5 minutes. After stopping the reaction, 5 μL of Eu-anti-phospho-tyrosine antibody dilution was added to each well, and the mixture was reacted at 25° C. for 60 minutes. Data were then collected using the PerkinElmer Nivo multimode microplate reader in TR-FRET mode (excitation wavelength: 320 nm, emission wavelength: 665 nm).
# Using the equation (Sample−Min)/(Max−Min)*100% to convert the raw data into inhibition rate, the IC50 value may be obtained by curve fitting with four parameters (obtained by “log (inhibitor) vs. response—Variable slope” mode in GraphPad Prism). Table 1 provides the CDK9-CyclinT1 enzymatic inhibitory activity of the compounds of the present disclosure.
# CDK2/CyclinE1 = CDK2/CyclinE1 (Homo sapiens (Human), UniProt P24941); assay: In vitro CDK2/CyclinE1 enzyme activity assay (TR-FRET); format: biochemical; conditions: Ulight-4E-BP1 peptide, 25° C. 120 minutes
# Protocol: Experimental Example 2: In Vitro CDK2/[…] Enzyme Activity Assay
# CDK2/CyclinE1 was purchased from SignalChem. Ulight-4E-BP1 peptide, Eu-anti-phospho-tyrosine antibody, and 1× detection buffer were purchased from PerkinElmer. High-purity ATP was purchased from Promega. EDTA was purchased from Sigma. Nivo multimode microplate reader (PerkinElmer).
# as §1, §2, §3, §4, §5
# The compounds to be tested were 5-fold diluted with a multi-channel pipette to the 8th concentration, i.e., from 40 μM to 0.512 nM, with a final DMSO concentration of 4%. The experiment was set up in duplicate wells. 2.5 μL of each concentration gradient of the inhibitor was added to the microplate, followed by 5 μL of CDK2/CyclinE1 enzyme (10 ng), and 2.5 μL of a mixture of substrate and ATP (4 mM ATP, 100 nM Ulight-4E-BP1 peptide). At this point, the final concentration gradient of the compound was 10 μM diluted to 0.128 nM. The reaction system was reacted at 25° C. for 120 minutes. After the reaction, 5 μL of stop solution was added to each well, and the reaction was continued at 25° C. for 5 minutes. After stopping the reaction, 5 μL of Eu-anti-phospho-tyrosine antibody dilution was added to each well, and the mixture was reacted at 25° C. for 60 minutes. Data were then collected using the PerkinElmer Nivo multimode microplate reader in TR-FRET mode (excitation wavelength: 320 nm, emission wavelength: 665 nm).
# Using the equation (Sample−Min)/(Max−Min)*100% to convert the raw data into inhibition rate, the IC50 value may be obtained by curve fitting with four parameters (obtained by “log (inhibitor) vs. response—Variable slope” mode in GraphPad Prism). Table 1 provides the CDK2/CyclinE1 enzymatic inhibitory activity of the compounds of the present disclosure.
# Sequence of CDK9-CyclinT1 (P50750 whole entry): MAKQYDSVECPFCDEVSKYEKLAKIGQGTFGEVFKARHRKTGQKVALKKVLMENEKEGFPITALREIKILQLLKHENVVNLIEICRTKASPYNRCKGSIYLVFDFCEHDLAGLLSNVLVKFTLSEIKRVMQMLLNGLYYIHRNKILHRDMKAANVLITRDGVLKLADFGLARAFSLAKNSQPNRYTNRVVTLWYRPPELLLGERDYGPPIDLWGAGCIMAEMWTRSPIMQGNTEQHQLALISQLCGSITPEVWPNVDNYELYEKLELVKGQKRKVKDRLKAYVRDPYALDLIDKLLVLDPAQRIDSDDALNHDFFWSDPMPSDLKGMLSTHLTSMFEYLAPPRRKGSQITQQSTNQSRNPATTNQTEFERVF
# Sequence of CDK9-CyclinT1 (O60563 whole entry partner): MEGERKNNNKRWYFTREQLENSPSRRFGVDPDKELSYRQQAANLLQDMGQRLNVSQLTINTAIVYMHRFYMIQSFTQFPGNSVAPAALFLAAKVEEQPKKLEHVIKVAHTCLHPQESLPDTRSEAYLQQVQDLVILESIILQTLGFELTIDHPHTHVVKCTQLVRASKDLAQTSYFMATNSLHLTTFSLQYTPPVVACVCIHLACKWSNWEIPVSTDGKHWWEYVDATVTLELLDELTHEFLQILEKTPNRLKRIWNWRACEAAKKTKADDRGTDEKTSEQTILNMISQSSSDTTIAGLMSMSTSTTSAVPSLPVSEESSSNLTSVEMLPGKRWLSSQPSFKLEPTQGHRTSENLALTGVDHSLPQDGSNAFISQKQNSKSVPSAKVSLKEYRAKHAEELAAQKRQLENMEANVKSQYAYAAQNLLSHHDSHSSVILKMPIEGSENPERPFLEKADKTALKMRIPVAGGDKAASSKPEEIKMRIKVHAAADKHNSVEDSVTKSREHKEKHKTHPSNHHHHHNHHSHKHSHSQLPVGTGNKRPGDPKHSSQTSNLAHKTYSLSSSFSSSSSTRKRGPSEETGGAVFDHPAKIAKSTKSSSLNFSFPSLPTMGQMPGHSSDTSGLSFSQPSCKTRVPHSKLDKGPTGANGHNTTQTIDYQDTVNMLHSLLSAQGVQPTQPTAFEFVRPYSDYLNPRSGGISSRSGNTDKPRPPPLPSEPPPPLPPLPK
Compound,IC50 (HCC70 cells) [nM],IC50 (CDK9-CyclinT1) [nM],IC50 (CDK2/CyclinE1) [nM]
CN1CCCCN2CCCC[C@@H](C2)Nc2ncc(C(F)(F)F)c(n2)-c2c[nH]c3c(P(C)(C)=O)c(ccc23)C1=O [Compound 3],1.4,> 1000,> 1000
CP(C)(=O)c1c2ccc3c(c[nH]c13)-c1nc(ncc1C(F)(F)F)N[C@H]1CCCN(CCCCCCO2)C1 [Compound 4],0.6,> 1000,> 1000
CP(C)(=O)c1c2ccc3c(c[nH]c13)-c1nc(ncc1C(F)(F)F)N[C@H]1CCCN(CCCCNC2=O)C1 [Compound 5],1,> 1000,738
CP(C)(=O)c1c2ccc3c(c[nH]c13)-c1nc(ncc1C(F)(F)F)N[C@H]1CCCCN(CCCCNC2=O)C1 [Compound 6],1.8,> 1000,> 1000
CN1CCCCN2CCC[C@@H](C2)Nc2ncc(C(F)(F)F)c(n2)-c2c[nH]c3c(P(C)(C)=O)c(ccc23)C1=O [Formate of compound 1],< 1.5,723,253
